US20260364184A1, “COMPOUND BASED ON OXOISOINDOLINYL-SUBSTITUTED TETRAHYDROPYRIMIDINE-DIONE AND USE THEREOF” (GLUETACS THERAPEUTICS (SHANGHAI) CO., LTD., priority 2023, published 2026)

What was measured:
[1] = tested on: Human gastric cancer cell line MGC803; test: Inhibition of MGC803 tumor cell proliferation (CellTiter luminescent viability); assay type: cell-based; conditions: Table IA1, IRAK4 inhibitor-based compounds; MGC803, 96 hours; read-out: Inhibitory activity (IC50, nM) on tumor cell proliferation, MGC803
Protocol: (§1) The tumor cells used herein were cultured in a cell culture medium listed in table 3 at 37 °C in an incubator with 5% CO2. Prior to experimentation, all cell lines used were correctly identified by STR profiling, and tested negative for mycoplasma contamination using a mycoplasma detection kit through routine screenings.
(§2) The IC50 values of the compounds of the present disclosure (including the compounds in Table 1, Table 2, and Examples 1-468) were determined using the CellTiter-Meiluncell Luminescent Cell Viability Assay Kit from Dalian Meilun Biotech Co., Ltd. The detailed procedure is as follows: Tumor cells were seeded in 96-well cell culture plates at the densities specified in Table 4. On the following day, the test compounds of the present disclosure were subjected to serial dilution. The dilution can be performed according to one of the following two methods: • (1) The first dilution method: The test compounds of the present disclosure (including the compounds in Table 1, Table 2, and Examples 1-468) were subjected to 5-fold serial dilutions starting from a highest concentration of 2000 μM, resulting in a total of 9 concentrations from high to low (2000, 400, 80, 16, 3.2, 0.64, 0.128, 0.0256, 0.00512 μM). Subsequently, 0.5 μL of the test compound dilution was transferred into the 96-well plate containing the cells, with each well containing 100 μL of cell culture medium. […] Into the 96-well plate, the diluted test compounds and corresponding detection reagents were added, resulting in final test compound concentrations of 500 nM and 10 nM, respectively. The experimental procedure is described below using the diluted 2 μM test compound as an example.
(§3) 0.5 μL of the aforementioned diluted compound of the present disclosure (including the compounds in Table 1, Table 2, and Examples 1-468) was added to the seeded cells in 100 μL of medium, yielding a final test compound concentration of 10 nM. After the cells were treated with the compounds of the present disclosure for a specified period, the cell viability assay reagent was added to the culture medium according to the kit's instructions to determine cell viability. […] All controls were treated using the same procedure as the compounds of the present disclosure. The growth inhibition curves for the compounds of the present disclosure were plotted using Prism GraphPad software, and the IC50 values were calculated therefrom.

[2] = tested on: Human large cell immunoblastic lymphoma cell line SR; test: Inhibition of SR cell proliferation (CellTiter luminescent viability); assay type: cell-based; conditions: Table IA1, IRAK4 inhibitor-based, 96 hours, read-out: Inhibitory activity (IC50, nM) on tumor cell proliferation, SR
Outline: (§4)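 IC50 is fitted from luminescent viability (CellTiter-Meiluncell) curves. Nine-point, 5-fold dilution series (top stock 2000 μM) are added at 0.5 μL per 100 μL medium to cells plated the day before, with growth at 37 °C and 5% CO2.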

JEKO-1 = test: Inhibition of JEKO-1 cell proliferation (CellTiter luminescent viability); assay type: cell-based, human; conditions: Table IA1, IRAK4 inhibitor-based; JEKO-1, 96 hours; read-out: Inhibitory activity (IC50, nM) on tumor cell proliferation, JEKO-1
Protocol: as §1, §2, §3

[3] = tested on: Human diffuse large B-cell lymphoma cell line (TMD8); test: Inhibition of TMD8 cell proliferation (CellTiter luminescent viability); assay type: cell-based; conditions: Homo sapiens, TMD8, 96 h, Table IF1, AR inhibitor-based; for inhibition at 0.01 µM: TMD8, 10 nM, read-out: Inhibition Rate at 10 nM (%); for inhibition at 0.5 µM: TMD8, 500 nM, read-out: Inhibition Rate at 500 nM (%)
[4] = tested on: Human Acute T Lymphoblastic Leukemia Cells (Molt-4); test: Inhibition of Molt-4 cell proliferation (CellTiter luminescent viability); assay type: cell-based; conditions: Homo sapiens, MOLT-4, 96 h, Table IA2, IRAK4 inhibitor-based, 96 hours; for inhibition at 0.01 µM: Molt-4, 10 nM, read-out: Inhibition Rate at 10 nM (%); for inhibition at 0.5 µM: Molt-4, 500 nM, read-out: Inhibition Rate at 500 nM (%)
[5] = tested on: Human myeloid monocytic leukemia cell line (MV-4-11); test: Inhibition of MV-4-11 cell proliferation (CellTiter luminescent viability); assay type: cell-based; conditions: Homo sapiens, MV4-11, Table IA3, IRAK4 inhibitor-based, 96 hours; for inhibition at 0.01 µM: MV-4-11, 10 nM, read-out: Inhibition Rate at 10 nM (%); for inhibition at 0.5 µM: MV-4-11, 500 nM, read-out: Inhibition Rate at 500 nM (%)
Outline: as §4

[6] = tested on: Human acute lymphocytic leukemia T lymphocytes cell line (CCRF-CEM); test: Inhibition of CCRF-CEM cell proliferation (CellTiter luminescent viability); assay type: cell-based; conditions: Homo sapiens, 96 h, Table IF2, AR inhibitor-based; for inhibition at 0.01 µM: 10 nM, read-out: Inhibition Rate at 10 nM (%); for inhibition at 0.5 µM: 500 nM, read-out: Inhibition Rate at 500 nM (%)

What does the source list for `O=C1CCN(N2Cc3cc(CN4CCC(n5cc(NC(=O)c6coc(-c7ccnc(NCC8CC8)c7)n6)c(C(F)F)n5)CC4)ccc3C2=O)C(=O)N1` [GT-04951, 2-(2-((cyclopropylmethyl)amino)pyridin-4-yl)-N-(3-(difluoromethyl)-1-(1-((2-(2,4-dioxotetrahydropyrimidin-1(2H)-yl)-1-oxoisoindolin-5-yl)methyl)piperidin-4-yl)-1H-pyrazol-4-yl) oxazole-4-carboxamide]?
IC50 [1]: 100 to 300 nM; IC50 [2]: 500 to 1000 nM; IC50 (JEKO-1): 100 to 300 nM

For `O=C1CCN(N2Cc3cc(CN4CCC(n5cc(NC(=O)c6cnn7ccc(N8C[C@H]9C[C@@H]8CO9)nc67)c(C(F)F)n5)CC4)ccc3C2=O)C(=O)N1` [GT-05028, 5-((1R,4R)-2-oxa-5-azabicyclo[2.2.1]heptan-5-yl)-N-(3-(difluoromethyl)-1-(1-((2-(2,4-dioxotetrahydropyrimidin-1(2H)-yl)-1-oxoisoindolin-5-yl)methyl)piperidin-4-yl)-1H-pyrazol-4-yl)pyrazolo[1,5-a]pyrimidine-3-carboxamide], which IC50 [1] is on record?
Its IC50 is 500 to 1000 nM.

What about the IC50 [2] of the same compound?
The IC50 was 500 to 1000 nM.

And the IC50 (JEKO-1)?
The IC50 was 300 to 500 nM.

Which results are given for `N#Cc1ccc(O[C@H]2CC[C@H](NC(=O)c3ccc(N4CCC(CN5C[C@@H]6C[C@H]5CN6c5ccc6c(c5)C(=O)N(N5CCC(=O)NC5=O)C6=O)CC4)nn3)CC2)cc1Cl` [GT-05226, N-((1r,4r)-4-(3-chloro-4-cyanophenoxy)cyclohexyl)-6-(4-(((1S,4S)-5-(2-(2,4-dioxotetrahydropyrimidin-1(2H)-yl)-1,3-dioxoisoindolin-5-yl)-2,5-diazabicyclo[2.2.1]heptan-2-yl)methyl)piperidin-1-yl)pyridazine-3-carboxamide]?
inhibition at 0.01 µM [3]: 10 to 15%; inhibition at 0.5 µM [3]: 25 to 30%

With `O=C1CCN(N2C(=O)c3cccc(N4CCC(CN5CCC(n6cc(NC(=O)c7cnn8ccc(N9C[C@H]%10C[C@@H]9CO%10)nc78)c(C(F)F)n6)CC5)CC4)c3C2=O)C(=O)N1` [GT-05285, 5-((1R,4R)-2-oxa-5-azabicyclo[2.2.1]heptan-5-yl)-N-(3-(difluoromethyl)-1-(1-((1-(2-(2,4-dioxotetrahydropyrimidin-1(2H)-yl)-1,3-dioxoisoindolin-4-yl)piperidin-4-yl)methyl)piperidin-4-yl)-1H-pyrazol-4-yl)pyrazolo[1,5-a]pyrimidine-3-carboxamide] as the compound, how does the inhibition at 0.01 µM [4] read?
The inhibition at 0.01 µM was -5 to 0%.

What about the inhibition at 0.5 µM [4] of the same compound?
The inhibition at 0.5 µM was 80 to 100%.

And the inhibition at 0.01 µM [5]?
The inhibition at 0.01 µM was 45 to 50%.

What about the inhibition at 0.5 µM [5] of the same compound?
The inhibition at 0.5 µM was 80 to 100%.

How did the inhibition at 0.01 µM [4] turn out when `O=C1CCN(N2Cc3cc(CN4CCC(n5cc(NC(=O)c6cnn7ccc(N8CCOCC8)nc67)c(C(F)F)n5)CC4)ccc3C2=O)C(=O)N1` [GT-05749] was run?
Its inhibition at 0.01 µM is 7 to 10%.

And the inhibition at 0.5 µM [4]?
The inhibition at 0.5 µM was 60 to 80%.

And the inhibition at 0.01 µM [5]?
The inhibition at 0.01 µM was 0 to 10%.

And the inhibition at 0.5 µM [5]?
Its inhibition at 0.5 µM is 80 to 100%.

For `N#Cc1ccc(O[C@H]2CC[C@H](NC(=O)c3ccc(N4CCC(CN5CC6CCC5CN6c5ccc6c(c5)C(=O)N(N5CCC(=O)NC5=O)C6=O)CC4)nn3)CC2)cc1Cl` (stereo partly drawn) [GT-05832, N-((1r,4r)-4-(3-chloro-4-cyanophenoxy)cyclohexyl)-6-(4-((5-(2-(2,4-dioxotetrahydropyrimidin-1(2H)-yl)-1,3-dioxoisoindolin-5-yl)-2,5-diazabicyclo[2.2.2]octan-2-yl)methyl)piperidin-1-yl)pyridazine-3-carboxamide], which inhibition at 0.01 µM [6] is on record?
The inhibition at 0.01 µM was -5 to 0%.

What about the inhibition at 0.5 µM [6] of the same compound?
Its inhibition at 0.5 µM is 30 to 40%.

What about the inhibition at 0.01 µM [3] of the same compound?
The inhibition at 0.01 µM was 10 to 15%.

And the inhibition at 0.5 µM [3]?
The inhibition at 0.5 µM was 40 to 60%.

`CC1(C)[C@H](NC(=O)c2ccc(N3CCC(CN4CC5CCC4CN5c4ccc5c(c4)C(=O)N(N4CCC(=O)NC4=O)C5=O)CC3)nc2)C(C)(C)[C@H]1Oc1ccc(C#N)c(Cl)c1` (stereo partly drawn) [GT-05834, N-((1r,3r)-3-(3-chloro-4-cyanophenoxy)-2,2,4,4-tetramethylcyclobutyl)-6-(4-((5-(2-(2,4-dioxotetrahydropyrimidin-1(2H)-yl)-1,3-dioxoisoindolin-5-yl)-2,5-diazabicyclo[2.2.2]octan-2-yl)methyl)piperidin-1-yl)nicotinamide] was tested. Which inhibition at 0.01 µM [6] did it give?
The inhibition at 0.01 µM was 10 to 15%.

And the inhibition at 0.5 µM [6]?
The inhibition at 0.5 µM was 40 to 60%.

And the inhibition at 0.01 µM [3]?
The inhibition at 0.01 µM was 15 to 20%.

And the inhibition at 0.5 µM [3]?
Its inhibition at 0.5 µM is 40 to 60%.
